Assay results taken from US20250230193A1, “CYCLIC COMPOUND HAVING SELECTIVE KRAS INHIBITORY EFFECT ON HRAS AND NRAS” (CHUGAI SEIYAKU KABUSHIKI KAISHA, priority 2022, published 2025).

Legend:
[1] = biological target: GDP-bound NRAS wild-type protein (Homo sapiens, UniProt P01111); experiment: Binding to NRAS by surface plasmon resonance (SPR), Single Cycle Kinetics; conditions: KD ratio NRAS/KRAS, class symbols
[2] = biological target: GDP-bound HRAS wild-type protein (Homo sapiens, UniProt P01112); experiment: Binding to HRAS by surface plasmon resonance (SPR), Single Cycle Kinetics; conditions: KD ratio HRAS/KRAS, class symbols
Chain of GDP-bound HRAS wild-type protein (P01112 whole entry): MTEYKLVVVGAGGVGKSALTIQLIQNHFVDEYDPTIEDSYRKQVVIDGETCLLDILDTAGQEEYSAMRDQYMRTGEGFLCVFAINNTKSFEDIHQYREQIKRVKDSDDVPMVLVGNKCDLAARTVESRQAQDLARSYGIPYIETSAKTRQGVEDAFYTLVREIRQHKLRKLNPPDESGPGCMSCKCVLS

Chain of GDP-bound NRAS wild-type protein (P01111 whole entry): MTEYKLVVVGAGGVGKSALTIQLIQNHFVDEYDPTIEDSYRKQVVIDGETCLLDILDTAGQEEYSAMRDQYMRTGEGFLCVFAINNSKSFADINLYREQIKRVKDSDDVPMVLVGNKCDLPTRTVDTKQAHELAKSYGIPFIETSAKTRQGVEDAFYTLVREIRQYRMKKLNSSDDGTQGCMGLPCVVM

Row | Structure (SMILES) | NRAS/KRAS (ratio of KD value with respect to GDP-bound NRAS wild-type protein to KD value with respect to KRAS) [1] | HRAS/KRAS (ratio of KD value with respect to GDP-bound HRAS wild-type protein to KD value with respect to KRAS) [2]
1 | CC[C@H](C)[C@@H]1NC(=O)[C@H](COC)N(C)C(=O)C[C@@H](C(=O)N(C)C)N(C)C(=O)[C@H](C2CCCCC2)N(C)C(=O)C2(CC(C)(C)C2)NC(=O)[C@@H]2C[C@@H](OC3CCC3)CN2C(=O)[C@H](CCc2cc(F)c(C(F)(F)F)c(F)c2)NC(=O)CN(C)C(=O)[C@H](Cc2ccc(C(F)(F)F)cc2)N2CC/C=C\C[C@@H](C2=O)N(C)C(=O)CN(C)C1=O [PP2655] | AA (a compound having 20 or more is denoted as AA) | A (a compound having 10 or more and less than 20 is denoted as A)
2 | CC[C@H](C)[C@@H]1NC(=O)[C@H](COC)N(C)C(=O)C[C@@H](C(=O)N(C)C)N(C)C(=O)[C@H](C2CCCCC2)N(C)C(=O)C2(CC(C)(C)C2)NC(=O)[C@@H]2C[C@@H](OC3CCCC3)CN2C(=O)[C@H](CCc2cc(F)c(C(F)(F)F)c(F)c2)NC(=O)CN(C)C(=O)[C@H](Cc2ccc(C(F)(F)F)cc2)N2CC/C=C\C[C@@H](C2=O)N(C)C(=O)CN(C)C1=O [PP2656] | A (a compound having 10 or more and less than 20 is denoted as A) | B (a compound having 3 or more and less than 10 is denoted as B)
3 | CCO[C@@H]1C[C@H]2C(=O)NC3(CC(C)(C)C3)C(=O)N(C)[C@@H](C3CCCCC3)C(=O)N(C)[C@H](C(=O)N(C)C)CC(=O)N(C)[C@@H](COC)C(=O)N[C@@H]([C@@H](C)CC)C(=O)N(C3CC3)CC(=O)N(C)[C@H]3C/C=C\CCN(C3=O)[C@@H](Cc3ccc(C(F)(F)F)cc3)C(=O)N(C)CC(=O)N[C@@H](CCc3cc(F)c(C(F)(F)F)c(F)c3)C(=O)N2C1 [PP2657] | A (a compound having 10 or more and less than 20 is denoted as A) | A (a compound having 10 or more and less than 20 is denoted as A)
4 | CCO[C@@H]1C[C@H]2C(=O)NC3(CC(C)(C)C3)C(=O)N(C)[C@@H](C3CCCCC3)C(=O)N(C)[C@H](C(=O)N(C)C)CC(=O)N(C)[C@@H](COC)C(=O)N[C@@H]([C@@H](C)CC)C(=O)N(C)CC(=O)N(C)[C@H]3C/C=C\CCN(C3=O)[C@@H](Cc3ccc(C)cc3)C(=O)N(C)CC(=O)N[C@@H](CCc3cc(F)c(C(F)(F)F)c(F)c3)C(=O)N2C1 [PP2659] | A (a compound having 10 or more and less than 20 is denoted as A) | A (a compound having 10 or more and less than 20 is denoted as A)
5 | CC[C@H](C)[C@@H]1NC(=O)[C@H](COC)N(C)C(=O)C[C@@H](C(=O)N(C)C)N(C)C(=O)[C@H](C2CCCCC2)N(C)C(=O)C2(CC(C)(C)C2)NC(=O)[C@@H]2C[C@@H](OC(C)C)CN2C(=O)[C@H](CCc2cc(F)c(C(F)(F)F)c(F)c2)NC(=O)CN(C)C(=O)[C@H](Cc2ccc(C)cc2)N2CC/C=C\C[C@@H](C2=O)N(C)C(=O)CN(C)C1=O [PP2660] | A (a compound having 10 or more and less than 20 is denoted as A) | A (a compound having 10 or more and less than 20 is denoted as A)
6 | CCO[C@@H]1C[C@H]2C(=O)NC3(CC(C)(C)C3)C(=O)N(C)[C@@H](C3CCCCC3)C(=O)N(C)[C@H](C(=O)N(C)C)CC(=O)N(C)[C@@H](COC)C(=O)N[C@@H]([C@@H](C)CC)C(=O)N(C)CC(=O)N(C)[C@H]3C/C=C\CCN(C3=O)[C@@H](Cc3ccc(C(F)(F)F)cc3)C(=O)N(C)CC(=O)N[C@@H](CCc3ccc(Cl)c(Cl)c3)C(=O)N2C1 [PP2661] | AA (a compound having 20 or more is denoted as AA) | A (a compound having 10 or more and less than 20 is denoted as A)
7 | CC[C@H](C)[C@@H]1NC(=O)[C@H](COC)N(C)C(=O)C[C@@H](C(=O)N(C)C)N(C)C(=O)[C@H](C2CCCCC2)N(C)C(=O)C2(CC(C)(C)C2)NC(=O)[C@@H]2C[C@@H](OC(C)C)CN2C(=O)[C@H](CCc2ccc(Cl)c(Cl)c2)NC(=O)CN(C)C(=O)[C@H](Cc2ccc(C(F)(F)F)cc2)N2CC/C=C\C[C@@H](C2=O)N(C)C(=O)CN(C)C1=O [PP2662] | AA (a compound having 20 or more is denoted as AA) | A (a compound having 10 or more and less than 20 is denoted as A)
8 | CC[C@H](C)[C@@H]1NC(=O)[C@H](COC)N(C)C(=O)C[C@@H](C(=O)N2CCCCC2)N(C)C(=O)[C@H](C2CCCC2)N(C)C(=O)C2(CC(C)(C)C2)NC(=O)[C@@H]2C[C@@H](OC3CCC3)CN2C(=O)[C@H](CCc2cc(F)c(C(F)(F)F)c(F)c2)NC(=O)CN(C)C(=O)[C@H](Cc2ccc(C(F)(F)F)cc2)N2CC/C=C\C[C@@H](C2=O)N(C)C(=O)CN(C)C1=O [PP2664] | A (a compound having 10 or more and less than 20 is denoted as A) | B (a compound having 3 or more and less than 10 is denoted as B)
9 | CC[C@H](C)[C@@H]1NC(=O)[C@H](COC)N(C)C(=O)C[C@@H](C(=O)N2CCCCC2)N(C)C(=O)[C@H](C2CCCC2)N(C)C(=O)C2(CC(C)(C)C2)NC(=O)[C@@H]2C[C@@H](OC3CCCC3)CN2C(=O)[C@H](CCc2cc(F)c(C(F)(F)F)c(F)c2)NC(=O)CN(C)C(=O)[C@H](Cc2ccc(C(F)(F)F)cc2)N2CC/C=C\C[C@@H](C2=O)N(C)C(=O)CN(C)C1=O [PP2665] | A (a compound having 10 or more and less than 20 is denoted as A) | A (a compound having 10 or more and less than 20 is denoted as A)
10 | CCO[C@@H]1C[C@H]2C(=O)NC3(CC(C)(C)C3)C(=O)N(C)[C@@H](C3CCCC3)C(=O)N(C)[C@H](C(=O)N3CCCCC3)CC(=O)N(C)[C@@H](COC)C(=O)N[C@@H]([C@@H](C)CC)C(=O)N(C3CC3)CC(=O)N(C)[C@H]3C/C=C\CCN(C3=O)[C@@H](Cc3ccc(C(F)(F)F)cc3)C(=O)N(C)CC(=O)N[C@@H](CCc3cc(F)c(C(F)(F)F)c(F)c3)C(=O)N2C1 [PP2666] | AA (a compound having 20 or more is denoted as AA) | AA (a compound having 20 or more is denoted as AA)
11 | CC[C@H](C)[C@@H]1NC(=O)[C@H](COC)N(C)C(=O)C[C@@H](C(=O)N2CCCCC2)N(C)C(=O)[C@H](C2CCCC2)N(C)C(=O)C2(CC(C)(C)C2)NC(=O)[C@@H]2C[C@@H](OC(C)C)CN2C(=O)[C@H](CCc2cc(F)c(C(F)(F)F)c(F)c2)NC(=O)CN(C)C(=O)[C@H](Cc2ccc(C(F)(F)F)cc2)N2CC/C=C\C[C@@H](C2=O)N(C)C(=O)CN(C2CC2)C1=O [PP2667] | A (a compound having 10 or more and less than 20 is denoted as A) | A (a compound having 10 or more and less than 20 is denoted as A)
12 | CCO[C@@H]1C[C@H]2C(=O)NC3(CC(C)(C)C3)C(=O)N(C)[C@@H](C3CCCC3)C(=O)N(C)[C@H](C(=O)N3CCCCC3)CC(=O)N(C)[C@@H](COC)C(=O)N[C@@H]([C@@H](C)CC)C(=O)N(C)CC(=O)N(C)[C@H]3C/C=C\CCN(C3=O)[C@@H](Cc3ccc(C)cc3)C(=O)N(C)CC(=O)N[C@@H](CCc3cc(F)c(C(F)(F)F)c(F)c3)C(=O)N2C1 [PP2668] | A (a compound having 10 or more and less than 20 is denoted as A) | A (a compound having 10 or more and less than 20 is denoted as A)
13 | CC[C@H](C)[C@@H]1NC(=O)[C@H](COC)N(C)C(=O)C[C@@H](C(=O)N2CCCCC2)N(C)C(=O)[C@H](C2CCCC2)N(C)C(=O)C2(CC(C)(C)C2)NC(=O)[C@@H]2C[C@@H](OC(C)C)CN2C(=O)[C@H](CCc2cc(F)c(C(F)(F)F)c(F)c2)NC(=O)CN(C)C(=O)[C@H](Cc2ccc(C)cc2)N2CC/C=C\C[C@@H](C2=O)N(C)C(=O)CN(C)C1=O [PP2669] | A (a compound having 10 or more and less than 20 is denoted as A) | A (a compound having 10 or more and less than 20 is denoted as A)
14 | CCO[C@@H]1C[C@H]2C(=O)NC3(CC(C)(C)C3)C(=O)N(C)[C@@H](C3CCCC3)C(=O)N(C)[C@H](C(=O)N3CCCCC3)CC(=O)N(C)[C@@H](COC)C(=O)N[C@@H]([C@@H](C)CC)C(=O)N(C)CC(=O)N(C)[C@H]3C/C=C\CCN(C3=O)[C@@H](Cc3ccc(C(F)(F)F)cc3)C(=O)N(C)CC(=O)N[C@@H](CCc3ccc(Cl)c(Cl)c3)C(=O)N2C1 [PP2670] | AA (a compound having 20 or more is denoted as AA) | A (a compound having 10 or more and less than 20 is denoted as A)
15 | CC[C@H](C)[C@@H]1NC(=O)[C@H](COC)N(C)C(=O)C[C@@H](C(=O)N2CCCCC2)N(C)C(=O)[C@H](C2CCCC2)N(C)C(=O)C2(CC(C)(C)C2)NC(=O)[C@@H]2C[C@@H](OC(C)C)CN2C(=O)[C@H](CCc2ccc(Cl)c(Cl)c2)NC(=O)CN(C)C(=O)[C@H](Cc2ccc(C(F)(F)F)cc2)N2CC/C=C\C[C@@H](C2=O)N(C)C(=O)CN(C)C1=O [PP2671] | A (a compound having 10 or more and less than 20 is denoted as A) | A (a compound having 10 or more and less than 20 is denoted as A)
